The source of these data is patent publication US4123613A, “Substituted pyrazines as inhibitors of platelet aggregation” (Societa Farmaceutici Italia S.p.A., priority 1976, dated 1978).

The subject of the assay is platelet aggregation (rabbit platelets, ADP-induced). The assay is described as follows: ADP-induced platelet aggregation in vitro (turbidimetric method, rabbit platelet-rich plasma). The assay is classed as cell-based. To be noted: for Percent inhibition of platelets aggregation / inhibition at 25 µg/mL / inhibition at 50 µg/mL / inhibition at 100 µg/mL / inhibition at 200 µg/mL: tartrate salt; for inhibition at 25 µg/mL / inhibition at 50 µg/mL / inhibition at 100 µg/mL / inhibition at 200 µg/mL: Platelet, read-out: Percent inhibition of platelets aggregation. Here is the method: In the biological tests hereafter described, the products were assayed as the tartrate salts.
Male rabbits weighing 2.5-3.5 Kg were used. Fifty four ml of blood were withdrawn from the carotid artery of rabbits anaesthetized with ether.
The PRP was obtained by centrifugation at 400 g for 10 minutes. The concentration of the platelets was adjusted to 250,000/mm^3 by diluting the PRP with PPP prepared by a second centrifugation of the blood samples for about 10 minutes at 2000 g.
The aggregation experiments were generally performed within 1-2 h from the time of blood collection.
In the cuvette of the aggregometer, reagents were added as follows: 0.8 ml drug solution or saline, and 0.2 ml ADP, at the molar concentration of 2.2 × 10^-4. The turbidimetry was checked after 11/2, 3 and 6 minutes. The inhibition of the aggregation is given in the table below as percent of ADP controls at the three times.

Where [1] appears, read: 50 γ/ml, 360 seconds after ADP (2.2 × 10^-4).
The mark [2] stands for this setting: 100 γ/ml, 90 seconds after ADP (2.2 × 10^-4).
[3] abbreviates: 100 γ/ml, 180 seconds after ADP (2.2 × 10^-4).
Where [4] appears, read: 100 γ/ml, 360 seconds after ADP (2.2 × 10^-4).
[5] abbreviates: 200 γ/ml, 90 seconds after ADP (2.2 × 10^-4).
[6] abbreviates: 200 γ/ml, 180 seconds after ADP (2.2 × 10^-4).
The mark [7] stands for this setting: 200 γ/ml, 360 seconds after ADP (2.2 × 10^-4).
The mark [8] stands for this setting: 25 γ/ml, 90 seconds after ADP (2.2 × 10^-4).
[9] abbreviates: 25 γ/ml, 180 seconds after ADP (2.2 × 10^-4).
Setting [10] is: 25 γ/ml, 360 seconds after ADP (2.2 × 10^-4).
Where [11] appears, read: 50 γ/ml, 90 seconds after ADP (2.2 × 10^-4).
The mark [12] stands for this setting: 50 γ/ml, 180 seconds after ADP (2.2 × 10^-4).
Setting [13] is: inhibition of platelet aggregation, at all three times.

≈ marks a conversion by molar mass, not a printed value. Read-outs that look alike come from different tables or passages of the source.

Regarding `CO[C@]12C[C@@H](CNc3cnccn3)CN(C)[C@@H]1Cc1cn(C)c3cccc2c13` [355/895, 2-(10'-methoxy-1',6'-dimethylergoline-8'β-methyl)aminopyrazine], the “Percent inhibition of platelets aggregation” value (from here on “Percent inhibition”) is, setting by setting: under setting [1], 5%; under setting [2], 10%; under setting [3], 12%; under setting [4], 20%; under setting [5], 50%; under setting [6], 55%. The “Percent inhibition” value under setting [7] turned out to be 62%. The “activity (inhibition of platelet aggregation, in words)” value (at all three times) is reported as “very low activity”.

For the molecule `CO[C@]12C[C@@H](CNc3nccnc3Cl)CN(C)[C@@H]1Cc1cn(C)c3cccc2c13` [355/898, 2-(10'methoxy-1',6'-dimethylergoline-8'β-methyl)amino-3-chloropyrazine], the “Percent inhibition” value reads like this: under setting [8], 17%; under setting [9], 20%; under setting [10], 30%; under setting [11], 35%; under setting [12], 31%; under setting [1], 45%. For the same molecule, the “Percent inhibition” value by setting is: under setting [2], 67%; under setting [3], 71%; under setting [4], 76%; under setting [5], 77%; under setting [6], 82%; under setting [7], 83%.

As for `COc1nccnc1NC[C@H]1CN(C)[C@@H]2Cc3cn(C)c4cccc(c34)[C@@]2(OC)C1` [355/899, 2-(10'-methoxy-1',6'-dimethylergoline-8'β-methyl)amino-3-methoxypyrazine], the “Percent inhibition” value runs as follows: under setting [11], 10%; under setting [12], 9%; under setting [1], 10%; under setting [2], 30%; under setting [3], 30%; under setting [4], 30%. Moreover, the “Percent inhibition” value stood at 60% under setting [5], 61% under setting [6] and 61% under setting [7].

Take `CO[C@]12C[C@@H](CNc3cncc(Cl)n3)CN(C)[C@@H]1Cc1cn(C)c3cccc2c13` [355/900, 2-(10'-methoxy-1',6'-dimethylergoline-8'β-methyl)amino-6-chloropyrazine]: the “Percent inhibition” value runs as follows: under setting [8], 10%; under setting [9], 10%; under setting [10], 10%; under setting [11], 40%; under setting [12], 25%; under setting [1], 30%. Moreover, the “Percent inhibition” value runs as follows: under setting [2], 80%; under setting [3], 70%; under setting [4], 80%; under setting [5], 100%; under setting [6], 100%; under setting [7], 100%. Further, the “activity (inhibition of platelet aggregation, in words)” value (at all three times) is “very strong activity”. The ED50 under setting [13] was in the range of 55 to 70 µg/mL.

In the case of `CO[C@]12C[C@@H](CSc3nccnc3Cl)CN(C)[C@@H]1Cc1cn(C)c3cccc2c13` [355/915, 2-(10'-methoxy-1',6'-dimethylergoline-8'β-methyl)thio-3-chloropyrazine], the “Percent inhibition” value amounted to 10% under setting [8]; 10% under setting [9]; 10% under setting [10]; 20% under setting [11]; 15% under setting [12]; 25% under setting [1]. For the same molecule, the “Percent inhibition” value under setting [2] is listed as 75%; the “Percent inhibition” value under setting [3] turned out to be 75%; the “Percent inhibition” value under setting [4] was 80%; the “Percent inhibition” value under setting [5] is 100%; the “Percent inhibition” value under setting [6] was 100%; the “Percent inhibition” value under setting [7] worked out at 100%. For the same molecule, the “activity (inhibition of platelet aggregation, in words)” value (at all three times) is “very strong activity”. The ED50 under setting [13] lay in the range of 55 to 70 µg/mL.

As to `CO[C@]12C[C@@H](CSc3cnccn3)CN(C)[C@@H]1Cc1cn(C)c3cccc2c13` [355/917, 2-(10'-methoxy-1',6'-dimethylergoline-8'β-methyl)thiopyrazine], the “Percent inhibition” value runs as follows: under setting [4], 10%; under setting [5], 15%; under setting [6], 12%; under setting [7], 35%. For the same molecule, under “at all three times”, the “activity (inhibition of platelet aggregation, in words)” value is “very low activity”.

Consider `COc1nccnc1SCC1CN(C)C2Cc3cn(C)c4cccc(c34)C2(OC)C1` (stereo not drawn) [355/918, 2-(10'-methoxy-1',6'-dimethylergoline-8'β-methyl)thio-3-methoxypyrazine], for which the inhibition at 25 µg/mL reads like this: (Oryctolagus cuniculus, 25 γ/ml, 90 seconds after ADP (2.2 × 10^-4)) 25%; (Oryctolagus cuniculus, 25 γ/ml, 180 seconds after ADP (2.2 × 10^-4)) 20%; (Oryctolagus cuniculus, 25 γ/ml, 360 seconds after ADP (2.2 × 10^-4)) 26%. In addition, the inhibition at 50 µg/mL is, setting by setting: (Oryctolagus cuniculus, 50 γ/ml, 90 seconds after ADP (2.2 × 10^-4)) 45%; (Oryctolagus cuniculus, 50 γ/ml, 180 seconds after ADP (2.2 × 10^-4)) 31%; (Oryctolagus cuniculus, 50 γ/ml, 360 seconds after ADP (2.2 × 10^-4)) 42%. The inhibition at 100 µg/mL runs as follows: (Oryctolagus cuniculus, 100 γ/ml, 90 seconds after ADP (2.2 × 10^-4)) 80%; (Oryctolagus cuniculus, 100 γ/ml, 180 seconds after ADP (2.2 × 10^-4)) 70%; (Oryctolagus cuniculus, 100 γ/ml, 360 seconds after ADP (2.2 × 10^-4)) 80%. Also, the inhibition at 200 µg/mL was 100% (Oryctolagus cuniculus, 200 γ/ml, 90 seconds after ADP (2.2 × 10^-4)); 100% (Oryctolagus cuniculus, 200 γ/ml, 180 seconds after ADP (2.2 × 10^-4)); 100% (Oryctolagus cuniculus, 200 γ/ml, 360 seconds after ADP (2.2 × 10^-4)). Besides, where the note is “Oryctolagus cuniculus, inhibition of platelet aggregation, at all three times, read-out: ED50 (the source's name)”, the IC50 is 55 to 70 µg/mL (≈ 130 to 165 µM). The “activity (inhibition of platelet aggregation, in words)” value (at all three times) was “very strong activity”.

In general, inhibition refers to the percentage by which the read-out fell short of the control.
